Reference: EP3991726A1, “ANTI-INFLAMMATORY COMPOSITION COMPRISING PALMITOYLETHANOLAMIDE AND PHYCOCYANIN” (priority 2020, dated 2022)

How the values were obtained:
[1] = tested on: human pulmonary epithelium cell line BEAS-2B; experiment: Toxicity as lactate dehydrogenase (LDH) release after LPS or Poly I:C stimulus; format: cell-based; conditions: stimulus LPS or PIC, PC and PEA 1 µM for 48h, Figure 1
Description: (§1) The cells were treated with PC and PEA 1 µM for 48h. The ROS (which are powerful oxidants) were measured as fluorescence emission of the intracellular probe DCF-DA (dichlorofluorescein diacetate). The toxicity was measured as release of an intracellular enzyme (lactate dehydrogenase LDH) in the extracellular medium; the release is proportional to the toxicity and is measured with a spectrophotometer.

[2] = tested on: human pulmonary epithelium cell line BEAS-2B; experiment: ROS measured as fluorescence emission of intracellular probe DCF-DA after LPS or Poly I:C stimulus; format: cell-based; conditions: stimulus LPS or PIC, PC and PEA 1 µM for 48h, Figure 1
Description: as §1

[3] = tested on: human pulmonary epithelium BEAS-2B; experiment: Cell proliferation by crystal violet colouring; format: cell-based; conditions: tested in the range 10 nM - 1 µM
Description: (§2) In a model of human pulmonary epithelium BEAS-2B (ATCC - CRL-9609), PC and PEA were tested in the range 10 nM - 1 µM.

[4] = tested on: transcripts for subunits 2 and 4 of complex IV of the mitochondrial respiratory chain (COX2 and COX4) and two subunits of the ATP synthase mitochondrial enzyme …; experiment: Mitochondrial respiratory chain and ATP synthase transcripts by real-time PCR; format: cell-based, human; conditions: BEAS-2B, bacterial (LPS) or viral (PIC) stimulus, PC and PEA 1 µM for 24h, Figure 3
Description: The cells were treated with PC and PEA 1 µM for 24h. The transcripts for subunits 2 and 4 of complex IV of the mitochondrial respiratory chain (COX2 and COX4) and the transcripts for two subunits of the ATP synthase mitochondrial enzyme (ATP mit and ATP n) were measured by means of real-time PCR.

[5] = tested on: human pulmonary epithelium BEAS-2B; experiment: MTT test for cytotoxicity; format: cell-based; conditions: tested in the range 10 nM - 1 µM
Description: as §2

[6] = tested on: interleukin 8 (IL-8) transcript; experiment: IL-8 transcript by real-time PCR after inflammatory stimulus; format: cell-based, human; conditions: BEAS-2B, bacterial (LPS) or viral (PIC) stimulus, PC and PEA 1 µM for 24h, Figure 2
Description: The cells were treated with PC and PEA 1 µM for 24h. The interleukin 8 (IL-8) transcript was measured by means of real-time PCR.

COX-2 (human) = target: T1, COX-2 (human) (Homo sapiens, UniProt P35354); experiment: COX-2 (human) Inhibitor Screening Assay Kit, in vitro ELISA method; format: biochemical; conditions: Cayman Chemical # 701080
T1 construct: purchased Cayman Chemical 701080
T1 sequence (P35354 18-604): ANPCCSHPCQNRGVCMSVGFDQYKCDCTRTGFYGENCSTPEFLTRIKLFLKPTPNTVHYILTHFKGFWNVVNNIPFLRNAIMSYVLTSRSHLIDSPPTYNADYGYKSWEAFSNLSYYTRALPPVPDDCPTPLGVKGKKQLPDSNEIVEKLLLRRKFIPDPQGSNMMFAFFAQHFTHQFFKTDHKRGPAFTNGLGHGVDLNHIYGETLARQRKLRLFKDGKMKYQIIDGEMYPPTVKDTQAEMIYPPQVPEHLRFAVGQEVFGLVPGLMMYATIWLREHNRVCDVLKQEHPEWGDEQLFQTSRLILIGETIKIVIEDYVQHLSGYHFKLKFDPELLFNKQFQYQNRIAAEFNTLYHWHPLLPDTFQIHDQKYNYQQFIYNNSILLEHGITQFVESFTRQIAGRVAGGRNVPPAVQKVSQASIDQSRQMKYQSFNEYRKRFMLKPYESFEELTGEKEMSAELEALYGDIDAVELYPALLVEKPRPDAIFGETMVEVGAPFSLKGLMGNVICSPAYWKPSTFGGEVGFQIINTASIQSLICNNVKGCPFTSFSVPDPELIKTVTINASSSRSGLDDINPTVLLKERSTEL
Text: Measurement of the IC50 in an in vitro test (ELISA method - COX-2 (human) Inhibitor Screening Assay Kit, # 701080, Cayman Chemical) gave the following results.

Compound: CCCCCCCCCCCCCCCC(=O)NCCO [PEA, palmitoylethanolamide]
- toxicity (LDH release in the extracellular medium) [1]: protect from oxidative stress and toxicity
- oxidative stress (ROS, DCF-DA fluorescence) [2]: protect from oxidative stress
- effect on cell growth (proliferation, crystal violet) [3]: no effect on cell growth
- activation of the mitochondrial respiratory burst (COX2, COX4, ATP mit, ATP n transcripts) [4]: reduce activation of the mitochondrial respiratory burst
- toxicity (MTT test) [5]: absence of toxicity
- production of inflammatory cytokines (IL-8 transcript) [6]: reduce the production of inflammatory cytokines
- IC50 (COX-2 (human)): 0.575 µM
